This assay deals with T1, Human TRPC6 (Homo sapiens, UniProt Q9Y210).
T1 construct: expressed in transfected cells
T1 sequence (Q9Y210 1-931): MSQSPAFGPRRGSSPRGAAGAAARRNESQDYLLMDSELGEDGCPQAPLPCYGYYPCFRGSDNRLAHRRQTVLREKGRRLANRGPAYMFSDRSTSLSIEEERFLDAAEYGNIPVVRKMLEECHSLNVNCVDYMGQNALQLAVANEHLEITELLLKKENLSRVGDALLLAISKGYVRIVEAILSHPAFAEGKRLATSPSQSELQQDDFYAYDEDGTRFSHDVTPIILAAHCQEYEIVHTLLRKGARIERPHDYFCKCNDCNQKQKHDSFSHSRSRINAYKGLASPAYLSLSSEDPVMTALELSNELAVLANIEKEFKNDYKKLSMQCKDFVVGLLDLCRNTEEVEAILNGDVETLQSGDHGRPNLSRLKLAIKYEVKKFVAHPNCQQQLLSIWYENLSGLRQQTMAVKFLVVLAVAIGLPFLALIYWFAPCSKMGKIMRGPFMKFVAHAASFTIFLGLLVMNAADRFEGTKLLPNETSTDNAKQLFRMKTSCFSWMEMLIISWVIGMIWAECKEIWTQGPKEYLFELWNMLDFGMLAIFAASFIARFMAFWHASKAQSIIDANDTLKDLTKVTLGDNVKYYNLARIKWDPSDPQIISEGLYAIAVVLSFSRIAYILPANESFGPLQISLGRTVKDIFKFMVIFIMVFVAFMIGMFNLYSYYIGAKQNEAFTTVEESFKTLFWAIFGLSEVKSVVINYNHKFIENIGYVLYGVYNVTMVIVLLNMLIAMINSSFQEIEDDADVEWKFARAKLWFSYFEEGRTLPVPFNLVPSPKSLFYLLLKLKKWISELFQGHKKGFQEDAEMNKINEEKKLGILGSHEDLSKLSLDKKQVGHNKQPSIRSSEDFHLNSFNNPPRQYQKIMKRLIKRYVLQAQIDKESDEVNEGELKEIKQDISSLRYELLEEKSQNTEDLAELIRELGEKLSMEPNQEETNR
The assay can be described thus: Evaluation of TRPC6 channel inhibitory activity (1), FLIPR Calcium 5 Assay Kit, OAG stimulation (Compound Nos. 1-1293). In kind it is cell-based. An outline of the steps:
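Readout is pIC50 from four-parameter logistic fitting of inhibition of the OAG-evoked (30 μM final) fluorescence calcium signal. Human TRPC6 stable cells are dye-loaded with probenecid, and compound is applied 20 min ahead of agonist.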

Where [1] appears, read: Human TRPC6 stably-expressing cells, OAG 30 μM, FLIPR Calcium 5 Assay Kit, read-out: Inhibitory activity (pIC50 class) (converted).

Each structure is given as a SMILES string. Like-named read-outs stand apart in the source and are kept apart here.

Turning to `Cc1cc(Oc2cc(C#N)ccc2-c2ncc(CN)cn2)cc(N2C3CCC2CC3)n1` [compound 826, 4-[5-(aminomethyl)pyrimidin-2-yl]-3-[2-(7-azabicyclo[2.2.1]heptan-7-yl)-6-methylpyridin-4-yl]oxybenzonitrile], the IC50 was below 10 nM.

As to `Cc1cc(Oc2cc(C#N)ccc2-c2ncc(CCN)cn2)cc(N2C3CCC2CC3)n1` [compound 827, 4-[5-(2-aminoethyl)pyrimidin-2-yl]-3-[2-(7-azabicyclo[2.2.1]heptan-7-yl)-6-methylpyridin-4-yl]oxybenzonitrile], the IC50 is below 10 nM.

Consider `Cn1nc(C(F)F)cc1Oc1cc(C#N)ccc1-c1ccc(CN)cn1` [compound 828, 4-[5-(aminomethyl)pyridin-2-yl]-3-[5-(difluoromethyl)-2-methylpyrazol-3-yl]oxybenzonitrile], for which, under setting [1], the IC50 is below 10 nM.

Turning to `Cn1nc(C(F)F)cc1Oc1cc(C#N)ccc1-c1ncc(CN)cn1` [compound 829, 4-[5-(aminomethyl)pyrimidin-2-yl]-3-[5-(difluoromethyl)-2-methylpyrazol-3-yl]oxybenzonitrile], under setting [1], the IC50 was 10 to 1000 nM.

As to `Cc1c(Oc2cc(C#N)ccc2-c2ncc(CCN)cn2)cnn1-c1ccccn1` [compound 830, 4-[5-(2-aminoethyl)pyrimidin-2-yl]-3-(5-methyl-1-pyridin-2-ylpyrazol-4-yl)oxybenzonitrile], the IC50 under setting [1] was 10 to 1000 nM.

As for `Cc1c(Oc2cc(C#N)ccc2-c2ncc(CN)cn2)cnn1-c1ccccn1` [compound 831, 4-[5-(aminomethyl)pyrimidin-2-yl]-3-(5-methyl-1-pyridin-2-ylpyrazol-4-yl)oxybenzonitrile], the IC50 under setting [1] is above 1000 nM.

Consider `Cc1nn(-c2ccccn2)cc1Oc1cc(C#N)ccc1-c1ncc(CCN)cn1` [compound 832, 4-[5-(2-aminoethyl)pyrimidin-2-yl]-3-(3-methyl-1-pyridin-2-ylpyrazol-4-yl)oxybenzonitrile], for which the IC50 under setting [1] was below 10 nM.

Take `Cc1nn(-c2ccccn2)cc1Oc1cc(C#N)ccc1-c1ncc(CN)cn1` [compound 833, 4-[5-(aminomethyl)pyrimidin-2-yl]-3-(3-methyl-1-pyridin-2-ylpyrazol-4 yl)oxybenzonitrile]: the IC50 under setting [1] is below 10 nM.

Regarding `Cc1nn(CC(F)(F)F)cc1Oc1cc(C#N)ccc1-c1ncc(CCN)cn1` [compound 834, 4-[5-(2-aminoethyl)pyrimidin-2-yl]-3-[3-methyl-1-(2,2,2-trifluoroethyl)pyrazol-4-yl]oxybenzonitrile], the IC50 under setting [1] was below 10 nM.

For the compound `Cc1nn(CC(F)(F)F)cc1Oc1cc(C#N)ccc1-c1ncc(CN)cn1` [compound 835, 4-[5-(aminomethyl)pyrimidin-2-yl]-3-[3-methyl-1-(2,2,2-trifluoroethyl)pyrazol-4-yl]oxybenzonitrile], the IC50 under setting [1] is below 10 nM.

Consider `Cc1c(Oc2cc(C#N)ccc2-c2ncc(CCN)cn2)cnn1CC(F)(F)F` [compound 836, 4-[5-(2-aminoethyl)pyrimidin-2-yl]-3-[5-methyl-1-(2,2,2-trifluoroethyl)pyrazol-4-yl]oxybenzonitrile], for which the IC50 under setting [1] is 10 to 1000 nM.

In the case of `Cc1c(Oc2cc(C#N)ccc2-c2ncc(CN)cn2)cnn1CC(F)(F)F` [compound 837, 4-[5-(aminomethyl)pyrimidin-2-yl]-3-[5-methyl-1-(2,2,2-trifluoroethyl)pyrazol-4-yl]oxybenzonitrile], the IC50 under setting [1] is 10 to 1000 nM.

`COCCCCN(C)c1cc(Oc2cc(C#N)ccc2-c2ncc(CCN)cn2)n(C)n1` [compound 838, 4-[5-(2-aminoethyl)pyrimidin-2-yl]-3-[5-[4-methoxybutyl(methyl)amino]-2-methylpyrazol-3-yl]oxybenzonitrile]: the IC50 under setting [1] was 10 to 1000 nM.

In the case of `CN(C)C(=O)CNC(C)(C)Cc1ccc(-c2ccc(C#N)cc2Oc2cc(-c3ccccn3)nn2C)nc1` [compound 839, 2-[[1-[6-[4-cyano-2-(2-methyl-5-pyridin-2-ylpyrazol-3-yl)oxyphenyl]pyridin-3-yl]-2-methylpropan-2-yl]amino]-N,N-dimethylacetamide], under setting [1], the IC50 is above 1000 nM.

On to `Cc1cc(Oc2cc(C#N)ccc2-c2ccc(CC(C)(C)NCC(=O)N(C)C)cn2)cc(N2CCOCC2)n1` [compound 840, 2-[[1-[6-[4-cyano-2-(2-methyl-6-morpholin-4-ylpyridin-4-yl)oxyphenyl]pyridin-3-yl]-2-methylpropan-2-yl]amino]-N,N-dimethylacetamide], for which the IC50 under setting [1] was above 1000 nM.

`Cc1cc(Oc2cc(C#N)ccc2-c2ncc(CNCC(N)=O)cn2)cc(-c2ccccn2)n1` [compound 841, 2-[[2-[4-cyano-2-(2-methyl-6-pyridin-2-ylpyridin-4-yl)oxyphenyl]pyrimidin-5-yl]methylamino]acetamide]: the IC50 under setting [1] is above 1000 nM.

As to `CCN(c1cc(Oc2cc(C#N)ccc2-c2ncc(CCN)cn2)n(C)n1)C(C)C` [compound 842, 4-[5-(2-aminoethyl)pyrimidin-2-yl]-3-[5-[ethyl(propan-2-yl)amino]-2-methylpyrazol-3-yl]oxybenzonitrile], the IC50 under setting [1] is below 10 nM.

Regarding `COCCOc1cc(Oc2cc(C#N)ccc2-c2ncc(CN)cn2)nc(C)n1` [compound 843, 4-[5-(aminomethyl)pyrimidin-2-yl]-3-[6-(2-methoxyethoxy)-2-methylpyrimidin-4-yl]oxybenzonitrile], the IC50 under setting [1] is above 1000 nM.

Consider `Cc1nc(Oc2cc(C#N)ccc2-c2ncc(CN)cn2)cc(O[C@@H]2CCOC2)n1` [compound 844, 4-[5-(aminomethyl)pyrimidin-2-yl]-3-[2-methyl-6-[(3R)-oxolan-3-yl]oxypyrimidin-4-yl]oxybenzonitrile], for which, under setting [1], the IC50 was above 1000 nM.

On to `Cc1nc(Oc2cc(C#N)ccc2-c2ncc(CN)cn2)cc(O[C@H]2CCOC2)n1` [compound 845, 4-[5-(aminomethyl)pyrimidin-2-yl]-3-[2-methyl-6-[(3S)-oxolan-3-yl]oxypyrimidin-4-yl]oxybenzonitrile], for which the IC50 under setting [1] was above 1000 nM.

Turning to `Cc1nc(OCC(C)C)cc(Oc2cc(C#N)ccc2-c2ncc(CN)cn2)n1` [compound 846, 4-[5-(aminomethyl)pyrimidin-2-yl]-3-[2-methyl-6-(2-methylpropoxy)pyrimidin-4-yl]oxybenzonitrile], under setting [1], the IC50 was 10 to 1000 nM.

`Cc1nc(OCC2CC2(F)F)cc(Oc2cc(C#N)ccc2-c2ncc(CN)cn2)n1` (stereo not shown) [compound 847, 4-[5-(aminomethyl)pyrimidin-2-yl]-3-[6-[(2,2-difluorocyclopropyl)methoxy]-2-methylpyrimidin-4-yl]oxybenzonitrile]: under setting [1], the IC50 is above 1000 nM.

`Cc1nc(Oc2cc(C#N)ccc2-c2ncc(CCN)cn2)cc(OC(C)C)n1` [compound 848, 4-[5-(2-aminoethyl)pyrimidin-2-yl]-3-(2-methyl-6-propan-2-yloxypyrimidin-4-yl)oxybenzonitrile]: the IC50 under setting [1] was below 10 nM.

As to `Cc1nc(OCC(C)C)cc(Oc2cc(C#N)ccc2-c2ncc(CCN)cn2)n1` [compound 849, 4-[5-(2-aminoethyl)pyrimidin-2-yl]-3-[2-methyl-6-(2-methylpropoxy)pyrimidin-4-yl]oxybenzonitrile], the IC50 under setting [1] is below 10 nM.

For `Cc1nc(Oc2cc(C#N)ccc2-c2ncc(CN)cn2)cc(N2C=NCCC2)n1` [compound 850, 4-[5-(aminomethyl)pyrimidin-2-yl]-3-[6-(5,6-dihydro-4H-pyrimidin-1-yl)-2-methylpyrimidin-4-yl]oxybenzonitrile], the IC50 under setting [1] is below 10 nM.

These data come from patent US20230167073A1 (Teijin Pharma Limited, priority 2020, published 2023).
